Earlier results, collected in patent US20090202630A1, “ORALLY DISINTEGRATING TABLET COMPOSITIONS OF RANITIDINE AND METHODS OF MANUFACTURE” (priority 2008, published 2009).
Counter-ions that a name gives are not always drawn.

solubility in water (in words): freely soluble
SMILES: CNC(=C[N+](=O)[O-])NCCSCc1ccc(CN(C)C)o1 [Ranitidine hydrochloride]
